Results reported in patent publication US10030016B2 (Sunesis Pharmaceuticals, Inc., priority 2009, dated 2018).
Read-outs that look alike come from different tables or passages of the source.

Experiments:
[1] = target: PDK1 (Homo sapiens (Human), UniProt O15530); test: PDK1 kinase assay (coupled PDK1/AKT/FAM-crosstide assay, IMAP fluorescence polarization); assay type: biochemical; conditions: inhibition of PDK1 in vitro
In short: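 GST-tagged PDK1 (aa 51-359, 0.75 nM) was coupled to unphosphorylated GST-AKT2 140-467-PIFtide (10 nM) and 100 nM FAM-crosstide at 40 μM ATP, in Tris pH 7.2 buffer, for 30 min at 25 °C. Crosstide phosphorylation was read by IMAP fluorescence polarization (ΔmP) and fitted with a 4-parameter curve.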

[2] = test system: phospho-akt (Thr308) in PC-3 cells; test: Inhibition of phospho-akt (Thr308) in PC-3 cells, MSD phospho-akt 308 ELISA kit; assay type: cell-based; conditions: inhibition of P308 Akt in PC-3 cells using MSD, 2 hours, no serum, read-out: EC50
In short: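 Phospho-Akt (Thr308) levels were measured by MSD ELISA after PC-3 cells received compound for 2 hours in serum-free medium. Controls: DMSO (high), 5 μM wortmannin (low).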

Sequence of PDK1 (O15530 51-359): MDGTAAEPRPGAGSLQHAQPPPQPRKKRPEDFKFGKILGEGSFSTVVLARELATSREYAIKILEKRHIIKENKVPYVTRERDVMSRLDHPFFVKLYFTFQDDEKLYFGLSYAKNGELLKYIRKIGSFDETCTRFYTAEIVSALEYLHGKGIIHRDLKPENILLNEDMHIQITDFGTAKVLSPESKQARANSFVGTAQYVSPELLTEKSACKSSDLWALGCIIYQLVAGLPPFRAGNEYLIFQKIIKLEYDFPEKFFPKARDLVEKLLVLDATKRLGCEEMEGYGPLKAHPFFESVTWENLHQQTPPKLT

IC50 [1] | EC50 ([2]; Homo sapiens) | EC50 [2] | SMILES
< 100 nM | < 1000 nM | – | C[C@H](NC(=O)c1cc(C#N)cnc1NCc1ccc(-c2cnc(N)c(C(=O)NCCO)c2)cc1)c1ccc(F)cc1 [Example 204, (S)-2-amino-5-(4-((5-cyano-3-(1-(4-fluorophenyl)ethylcarbamoyl)pyridin-2-ylamino)methyl)phenyl)-N-(2-hydroxyethyl) nicotinamide]
100 to 1000 nM | 1000 to 10000 nM | – | C[C@H](NC(=O)c1cc(C#N)cnc1NCc1ccc(-c2cnc(N)c(C(=O)N(C)C)c2)cc1)c1ccc(F)cc1 [Example 205, (S)-2-amino-5-(4-((5-cyano-3-(1-(4-fluorophenyl)ethylcarbamoyl)pyridin-2-ylamino)methyl)phenyl)-N,N-dimethylnicotinamide]
< 100 nM | 1000 to 10000 nM | – | C[C@H](NC(=O)c1cc(C#N)cnc1NCc1ccc(-c2cnc(N)c(C(=O)NCC(O)CO)c2)cc1)c1ccc(F)cc1 (stereo partly drawn) [Example 206]
< 100 nM | – | < 1000 nM | C[C@H](NC(=O)c1cc(C#N)cnc1NCc1ccc(-c2cnc(N)c(C(=O)NCCCO)n2)cc1)c1ccc(F)cc1 [Example 209, (S)-3-amino-6-(4-((5-cyano-3-(1-(4-fluorophenyl)ethylcarbamoyl)pyridin-2-ylamino)methyl)phenyl)-N-(3-hydroxypropyl) pyrazine-2-carboxamide]
< 100 nM | < 1000 nM | – | C[C@H](NC(=O)c1cc(C#N)cnc1NCc1ccc(-c2cnc(N)c(C(=O)NCCO)n2)cc1)c1ccc(F)cc1 [Example 215, (S)-3-amino-6-(4-((5-cyano-3-(1-(4-fluorophenyl)ethylcarbamoyl)pyridin-2-ylamino)methyl)phenyl)-N-(2-hydroxyethyl) pyrazine-2-carboxamide]
< 100 nM | < 1000 nM | – | CNC(=O)c1nc(-c2ccc(CNc3ncc(C#N)cc3C(=O)N[C@@H](C)c3ccc(F)cc3)cc2)cnc1N [Example 216, (S)-3-amino-6-(4-((5-cyano-3-(1-(4-fluorophenyl)ethylcarbamoyl)pyridin-2-ylamino)methyl)phenyl)-N-methylpyrazine-2-carboxamide]
100 to 1000 nM | 1000 to 10000 nM | – | C[C@H](NC(=O)c1cc(C#N)cnc1NCc1ccc(-c2ccc(NCCO)nc2)cc1)c1ccc(F)cc1 [Example 222, 5-Cyano-N-[(S)-1-(4-fluoro-phenyl)-ethyl]-2-{4-[6-(2-hydroxy-ethylamino)-pyridin-3-yl]-benzylamino}-nicotinamide]

Further lines, the compound ahead of its results:

SMILES | IC50 [1] | EC50 ([2]; Homo sapiens) | EC50 [2]
CNC(=O)c1cc(-c2ccc(CNc3ncc(C#N)cc3C(=O)N[C@@H](C)c3ccc(F)cc3)cc2)cnc1N [Example 203, (S)-2-amino-5-(4-((5-cyano-3-(1-(4-fluorophenyl)ethylcarbamoyl)pyridin-2-ylamino)methyl)phenyl)-N-methylnicotinamide] | < 100 nM | < 1000 nM | –
C[C@H](NC(=O)c1cc(C#N)cnc1NCc1ccc(-c2cnc(N)c(C(=O)O)n2)cc1)c1ccc(F)cc1 [Example 207, (S)-3-amino-6-(4-((5-cyano-3-(1-(4-fluorophenyl)ethylcarbamoyl)pyridin-2-ylamino)methyl)phenyl)-pyrazine-2-carboxylic acid] | < 100 nM | > 10000 nM | –
C[C@H](NC(=O)c1cc(C#N)cnc1NCc1ccc(-c2cnc(N)c(C(=O)NCCCS(C)(=O)=O)n2)cc1)c1ccc(F)cc1 [Example 208] | < 100 nM | < 1000 nM | –
C[C@H](NC(=O)c1cc(C#N)cnc1NCc1ccc(-c2cnc(N)c(C(=O)N(C)C)n2)cc1)c1ccc(F)cc1 [Example 210, (S)-3-amino-6-(4-((5-cyano-3-(1-(4-fluorophenyl)ethylcarbamoyl)pyridin-2-ylamino)methyl)phenyl)-N,N-dimethylpyrazine-2-carboxamide] | < 100 nM | 1000 to 10000 nM | –
C[C@H](NC(=O)c1cc(C#N)cnc1NCc1ccc(-c2cnc(N)c(C(=O)NCCCN(C)C)n2)cc1)c1ccc(F)cc1 [Example 211] | < 100 nM | 1000 to 10000 nM | –
C[C@H](NC(=O)c1cc(C#N)cnc1NCc1ccc(-c2cnc(N)c(C(=O)NCCN(C)C)n2)cc1)c1ccc(F)cc1 [Example 212] | < 100 nM | < 1000 nM | –
C[C@H](NC(=O)c1cc(C#N)cnc1NCc1ccc(-c2cnc(N)c(C(=O)NCCN3CCN(C)CC3)n2)cc1)c1ccc(F)cc1 [Example 213, (S)-3-amino-6-(4-((5-cyano-3-(1-(4-fluorophenyl)ethylcarbamoyl)pyridin-2-ylamino)methyl)phenyl)-N-(2-(4-methylpiperazin-1-yl)ethyl)pyrazine-2-carboxamide] | < 100 nM | < 1000 nM | –
C[C@H](NC(=O)c1cc(C#N)cnc1NCc1ccc(-c2cnc(N)c(C(=O)NCCN3CCOCC3)n2)cc1)c1ccc(F)cc1 [Example 214, (S)-3-amino-6-(4-((5-cyano-3-(1-(4-fluorophenyl)ethylcarbamoyl)pyridin-2-ylamino)methyl)phenyl)-N-(2-morpholinoethyl) pyrazine-2-carboxamide] | < 100 nM | < 1000 nM | –
C[C@H](NC(=O)c1cc(C#N)cnc1NCc1ccc(-c2cnc(N)c(C(N)=O)n2)cc1)c1ccc(F)cc1 [Example 217, (S)-3-amino-6-(4-((5-cyano-3-(1-(4-fluorophenyl)ethylcarbamoyl)pyridin-2-ylamino)methyl)phenyl) pyrazine-2-carboxamide] | < 100 nM | < 1000 nM | –
C[C@H](NC(=O)c1cc(C#N)cnc1NCc1ccc(-c2cnc(N)c(C(=O)NC3CC3)n2)cc1)c1ccc(F)cc1 [Example 218, (S)-3-amino-6-(4-((5-cyano-3-(1-(4-fluorophenyl)ethylcarbamoyl)pyridin-2-ylamino)methyl)phenyl)-N-cyclopropylpyrazine-2-carboxamide] | < 100 nM | < 1000 nM | –
C[C@H](NC(=O)c1nc(C#N)cnc1NCc1ccc(-c2cnc(N)c(C(=O)N3CCNCC3)n2)cc1)c1ccc(F)c(F)c1 [Example 219, 3-{4-[5-Amino-6-(piperazine-1-carbonyl)-pyrazin-2-yl]-benzylamino}-6-cyano-pyrazine-2-carboxylic acid [(S)-1-(3,4-difluoro-phenyl)-ethyl]-amide] | < 100 nM | 1000 to 10000 nM | –
Nc1ncc(-c2ccc(CNc3ncc(C(F)(F)F)cc3C(=O)Nc3ccc(F)cc3)cc2)nc1C(=O)N1CCNCC1 [Example 220, 2-{4-[5-Amino-6-(piperazine-1-carbonyl)-pyrazin-2-yl]-benzylamino}-N-(4-fluoro-phenyl)-5-trifluoromethyl-nicotinamide] | < 100 nM | 1000 to 10000 nM | –
C[C@H](NC(=O)c1cc(C#N)cnc1NCc1ccc(-c2cnc(N)c(C(=O)N3CCNCC3)n2)cc1)c1ccc(F)cc1 [Example 221, 2-{4-[5-Amino-6-(piperazine-1-carbonyl)-pyrazin-2-yl]-benzylamino}-5-cyano-N-[(S)-1-(4-fluoro-phenyl)-ethyl]-nicotinamide] | < 100 nM | 1000 to 10000 nM | –
C[C@H](NC(=O)c1cc(C#N)cnc1NCc1ccc(-c2ccc(NCCN3CCOCC3)nc2)cc1)c1ccc(F)cc1 [Example 223, 5-Cyano-N-[(S)-1-(4-fluoro-phenyl)-ethyl]-2-{4-[6-(2-morpholin-4-yl-ethylamino)-pyridin-3-yl]-benzylamino}-nicotinamide] | > 5000 nM | > 10000 nM | –
